Data published in PubChem BioAssay (NCI).
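How tested: cells in 96-well plates exposed to compound for 48 hours at five concentrations. The concentration for full growth arrest is given as TGI.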

Experiments:
Assay in all cases: inhibition of tumour cell growth, NCI panel, 48 h
SF-268 CNS = test system: SF-268 CNS
SN12C renal = test system: SN12C renal
IGROV1 ovarian = test system: IGROV1 ovarian
SK-MEL-28 melanoma = test system: SK-MEL-28 melanoma
SR leukemia = test system: SR leukemia
NCI-H23 lung = test system: NCI-H23 lung
SK-OV-3 ovarian = test system: SK-OV-3 ovarian
SNB-75 CNS = test system: SNB-75 CNS
HOP-62 NSCLC = test system: HOP-62 NSCLC
NCI-H226 lung = test system: NCI-H226 lung
HCT-15 colon = test system: HCT-15 colon
COLO 205 colon = test system: COLO 205 colon
RXF 393 renal = test system: RXF 393 renal
OVCAR-8 ovarian = test system: OVCAR-8 ovarian
HS 578T breast = test system: HS 578T breast
MOLT-4 leukemia = test system: MOLT-4 leukemia
EKVX NSCLC = test system: EKVX NSCLC
HT29 colon = test system: HT29 colon
UACC-62 melanoma = test system: UACC-62 melanoma
PC-3 prostate = test system: PC-3 prostate
MALME-3M melanoma = test system: MALME-3M melanoma
SF-295 CNS = test system: SF-295 CNS
786-0 renal = test system: 786-0 renal
HCC-2998 colon = test system: HCC-2998 colon
MDA-N = test system: MDA-N
OVCAR-5 ovarian = test system: OVCAR-5 ovarian
SF-539 CNS = test system: SF-539 CNS
A549 NSCLC = test system: A549 NSCLC
BT-549 breast = test system: BT-549 breast
TK-10 renal = test system: TK-10 renal
SNB-19 CNS = test system: SNB-19 CNS
MCF7 breast = test system: MCF7 breast
RPMI-8226 leukemia = test system: RPMI-8226 leukemia
CAKI-1 renal = test system: CAKI-1 renal
NCI-H460 lung = test system: NCI-H460 lung
A498 renal = test system: A498 renal
SK-MEL-5 melanoma = test system: SK-MEL-5 melanoma
UO-31 renal = test system: UO-31 renal
HCT-116 colon = test system: HCT-116 colon
DU-145 prostate = test system: DU-145 prostate
OVCAR-3 ovarian = test system: OVCAR-3 ovarian
NCI/ADR-RES ovarian = test system: NCI/ADR-RES ovarian
T-47D breast = test system: T-47D breast
MDA-MB-435 = test system: MDA-MB-435
KM12 colon = test system: KM12 colon
CCRF-CEM leukemia = test system: CCRF-CEM leukemia
HL-60(TB) leukemia = test system: HL-60(TB) leukemia
U251 CNS = test system: U251 CNS
M14 melanoma = test system: M14 melanoma
OVCAR-4 ovarian = test system: OVCAR-4 ovarian
SW-620 colon = test system: SW-620 colon
UACC-257 melanoma = test system: UACC-257 melanoma
NCI-H522 lung = test system: NCI-H522 lung
MDA-MB-231 breast = test system: MDA-MB-231 breast
HOP-92 NSCLC = test system: HOP-92 NSCLC
SK-MEL-2 melanoma = test system: SK-MEL-2 melanoma
ACHN renal = test system: ACHN renal
LOX IMVI melanoma = test system: LOX IMVI melanoma

Measured: TGI

Cc1cc(=O)[nH]c(S(=O)(=O)NC(=S)Nc2ccc(Cl)cc2)n1
84.6 µM: NCI-H522 lung
not listed: LOX IMVI melanoma
> 100 µM: all other assays above

CC1OC(Oc2c(-c3cc(O)c(O)c(O)c3)oc3cc(O)cc(O)c3c2=O)C(O)C(O)C1O (stereo not drawn)
not listed: NCI-H460 lung | CCRF-CEM leukemia
> 100 µM: all other assays above
